# In patent US6235738A, “Diphenyl-substituted heterocycles with 6-membered ring, processes for the preparation thereof and the use thereof as medicaments” (Boehringer Ingelheim Pharma KG, priority 1998, dated 2001):
# What was measured:
# AMPA receptor = assay: Inhibition of the signal induced by kainate on AMPA receptor (electrophysiology on neuronal cells, Patch-Clamp method); type: cell-based; details: concentration not given
# Protocol: The effected on AMPA receptor was tested by electrophysiology on neuronal cells (Patch-Clamp method) (M. L. Mayer, L. Vyklicky and G. L. Westbrook, J. Physiol. 415(1989) 329-350).
# Inhibition of the signal induced by kainate on AMPA receptor
# [1] = biological target: Na^+ canal site 2 binding site; assay: Affinity for the "Na^+ canal site 2" binding site; details: tests typically at a test concentration of 10 μM
# Protocol: The test of affinity for the "Na^+ canal site 2" binding site was carried out as described by G. B. Brown (J. Neurosci. 6 (1986) 2064). Tests were carried out typically at a test concentration of 10 μM.
Ki [1] [µM],Compound,AMPA Inh. (AMPA receptor) [%]
,"CN(C)CCOc1ccccc1-c1nncc(-c2ccccc2)n1 [Example 8, 3-{2-[2-(N,N-Dimethylamino)ethyl]oxy-phenyl}-5-phenyl-1,2,4-triazine]",95
2.4,"CN(C)CCOc1ccccc1-c1cnnc(-c2ccccc2)n1 [Example 7, 5-{2-[2-(N,N-Dimethylamino)ethyl]oxy-phenyl}-3-phenyl-1,2,4-triazine]",98
2.8,"CN(C)CCOc1ccccc1-c1ncnc(-c2ccccc2)n1 [Example 6, 2-{2-[2-(N,N-Dimethylamino)ethyl]oxy-phenyl}-4-phenyl-1,3,5-triazine]",66
4,"CN(C)CCOc1ccccc1-c1ccnc(-c2ccccc2)n1 [Example 4, 4-{2-[2-(N,N-Dimethylamino)ethyl]oxy-phenyl}-2-phenyl-pyrimidine]",96
